Counter-ions that a name gives are not always drawn.
Work on `COc1ccc2c(COCc3ccccc3)nnc(NC3CCN(Cc4ccc5ccccc5c4)CC3)c2c1.Cl.Cl` yielded a melting point of 284 °C.
`COc1ccc(-c2nnc(NC3CCN(Cc4ccc(CO)cc4)CC3)c3cc(OC)ccc23)cc1.Cl.Cl` showed a melting point of 139 °C.
`COc1ccc(-c2nnc(NC3CCN(Cc4ccc(CN)cc4)CC3)c3cc(OC)ccc23)cc1.Cl.Cl.Cl` gave a melting point of 203 °C.
With `COc1ccc2cnnc(NC3CCN(Cc4ccc5ccccc5c4)CC3)c2c1` (as salt: HCl) (hydrate or solvate) [Compound 70, 7-methoxy-N-[1-(2-naphthylmethyl)piperidin-4-yl]-phthalazin-1-amine] the melting point was 189 °C.
`COc1ccc(-c2nnc(N[C@H]3CCN(Cc4ccc5ccccc5c4)C3)c3cc(OC)ccc23)cc1` (as salt: HCl) (hydrate or solvate) [Compound 96, 4-(4-Methoxyphenyl)-7-methoxy-N-[(3S)-1-(naphthalen-2-ylmethyl)pyrrolidin-3-yl]phthalazin-1-amine] gave a melting point of 280 °C.
Compound `COC(=O)c1ccc(CN2CCC(Nc3nnc(-c4ccc(OC)cc4)c4ccc(OC)cc34)CC2)cc1` (as salt: HCl) (hydrate or solvate) [Compound 107, methyl {4-[(4-{[7-methoxy-4-(4-methoxyphenyl)phthalazin-1-yl]amino}piperidin-1-yl)methyl]phenyl}carboxylate] has a melting point of 241 °C.
For `COc1ccc(-c2nnc(NC3CCN(Cc4ccc(C#N)cc4)CC3)c3cc(OC)ccc23)cc1` (as salt: HCl) (hydrate or solvate) [Compound 108, N-[1-(4-cyanobenzyl)piperidin-4-yl)-7-methoxy-4-(4-methoxyphenyl)phthalazin-1-amine], the melting point was 270 °C.
Compound `COc1ccc(-c2nnc(NC3CCN(Cc4ccc(C(C)=O)cc4)CC3)c3cc(OC)ccc23)cc1` (as salt: HCl) (hydrate or solvate) [Compound 121, 1-{4-[(4-{[7-methoxy-4-(4-methoxyphenyl)phthalazin-1-yl]amino}piperidin-1-yl)methyl]phenyl}ethanone] has a melting point of 241 °C.
`COc1ccc2c(CO)nnc(NC3CCN(Cc4ccc5ccccc5c4)CC3)c2c1` (as salt: HCl) (hydrate or solvate) [Compound 148, 4-Hydroxymethyl-7-methoxy-N-[1-(naphthalen-2-ylmethyl)piperidin-4-yl]phthalazin-1-amine] gave a melting point of 186 °C.
Compound `COc1ccc(-c2nnc(NC3CCN(Cc4ccc(C)cc4)CC3)c3cc(OC)ccc23)cc1` (as salt: HCl) [Compound 75, 7-methoxy-4-(4-methoxyphenyl)-N-[1-(4-methylbenzyl)piperidin-4-yl]phthalazin-1-amine] has a melting point of 148 °C.
For `COc1ccc(-c2nnc(NC3CC4CCC(C3)N4Cc3ccc4ccccc4c3)c3cc(OC)ccc23)cc1` (stereo not shown) (as salt: salt) (hydrate or solvate), the melting point was 176 °C.
Work on `COc1ccc2c(-c3ccccc3)nnc(NC3CCN(Cc4ccc5ccccc5c4)CC3)c2c1` (as salt: salt) (hydrate or solvate) [Compound 1, 7-methoxy-N-[1-(naphthalen-2-ylmethyl)piperidin-4-yl]-4-phenylphthalazin-1-amine] yielded a melting point of 121 °C.
With `COc1ccc2c(-c3ccccc3OC)nnc(NC3CCN(Cc4ccc5ccccc5c4)CC3)c2c1` (as salt: salt) (hydrate or solvate) [Compound 2, 7-methoxy-4-(2-methoxyphenyl)-N-[1-(naphthalen-2-ylmethyl)piperidin-4-yl]phthalazin-1-amine] the melting point was 158 °C.
`COc1ccc(-c2nnc(NC3CCN(Cc4ccc5ccccc5c4)CC3)c3cc(OC)ccc23)cc1` (as salt: salt) (hydrate or solvate) [Compound 3, 7-methoxy-4-(4-methoxyphenyl)-N-[1-(naphthalen-2-ylmethyl)piperidin-4-yl]phthalazin-1-amine] showed a melting point of 195 °C.
`COc1cccc(-c2nnc(NC3CCN(Cc4ccc5ccccc5c4)CC3)c3cc(OC)ccc23)c1` (as salt: salt) (hydrate or solvate) [Compound 5, 7-methoxy-4-(3-methoxyphenyl)-N-[1-(naphthalen-2-ylmethyl)piperidin-4-yl]phthalazin-1-amine] showed a melting point of 154 °C.
`COc1cccc(-c2nnc(NC3CCN(Cc4ccccc4)CC3)c3cc(OC)ccc23)c1` (as salt: salt) (hydrate or solvate) [Compound 6, N-(1-benzylpiperidin-4-yl)-7-methoxy-4-(3-methoxyphenyl)phthalazin-1-amine] gave a melting point of 176 °C.
Work on `COc1ccc(-c2nnc(NC3CCN(Cc4ccccc4)CC3)c3cc(OC)ccc23)cc1` (as salt: salt) (hydrate or solvate) [Compound 7, N-(1-benzylpiperidin-4-yl)-7-methoxy-4-(4-methoxyphenyl)phthalazin-1-amine] yielded a melting point of 150 °C.
`COc1ccc2c(-c3cccs3)nnc(NC3CCN(Cc4ccccc4)CC3)c2c1` (as salt: salt) (hydrate or solvate) [Compound 8, N-(1-benzylpiperidin-4-yl)-7-methoxy-4-(thiophen-2-yl)phthalazin-1-amine] gave a melting point of 115 °C.
Work on `COc1ccc(-c2nnc(NC3CCN(Cc4ccc5ccccc5c4)CC3)c3cc(C)ccc23)cc1` (as salt: salt) (hydrate or solvate) [Compound 9, 4-(4-methoxyphenyl)-7-methyl-N-[1-(naphthalen-2-ylmethyl)piperidin-4-yl]phthalazin-1-amine] yielded a melting point of 198 °C.
For `COc1ccc2c(-c3ccc(OC)c(OC)c3)nnc(NC3CCN(Cc4ccc5ccccc5c4)CC3)c2c1` (as salt: salt) (hydrate or solvate) [Compound 10, 4-(3,4-Dimethoxyphenyl)-7-methoxy-N-[1-(naphthalen-2-ylmethyl)piperidin-4-yl]phthalazin-1-amine], the melting point was 131 °C.
Work on `COc1cc(OC)c2cnnc(NC3CCN(Cc4ccccc4)CC3)c2c1` (as salt: salt) (hydrate or solvate) [Compound 13, N-(1-benzylpiperidin-4-yl)-5,7-dimethoxyphthalazin-1-amine] yielded a melting point of 169 °C.
Compound `COc1cc(OC)c2cnnc(NC3CCN(Cc4ccc5ccccc5c4)CC3)c2c1` (as salt: salt) (hydrate or solvate) [Compound 14, 5,7-dimethoxy-N-[1-(naphthalen-2-ylmethyl)piperidin-4-yl]phthalazin-1-amine] has a melting point of 206 °C.
Compound `COc1ccc2c(-c3ccc(C)s3)nnc(NC3CCN(Cc4ccccc4)CC3)c2c1` (as salt: salt) (hydrate or solvate) [Compound 16, N-(1-benzylpiperidin-4-yl)-7-methoxy-4-(5-methylthiophen-2-yl)phthalazin-1-amine] has a melting point of 155 °C.
`COc1ccc(-c2nnc(NC3CCN(Cc4cccc(C#N)c4)CC3)c3cc(OC)ccc23)cc1` (as salt: salt) (hydrate or solvate) [Compound 18, N-[1-(3-cyanophenylmethyl)-piperidin-4-yl]-7-methoxy-4-(4-methoxyphenyl)phthalazin-1-amine] showed a melting point of 115 °C.
`CCc1nnc(NC2CCN(Cc3ccc4ccccc4c3)CC2)c2cc(OC)ccc12` (as salt: salt) (hydrate or solvate) [Compound 20, 4-Ethyl-7-methoxy-N-[1-(naphthalen-2-ylmethyl)piperidin-4-yl]phthalazin-1-amine] gave a melting point of 135 °C.
`COc1ccc2c(Cc3ccccc3)nnc(NC3CCN(Cc4ccc5ccccc5c4)CC3)c2c1` (as salt: salt) (hydrate or solvate) [Compound 21, 4-Benzyl-7-methoxy-N-[1-(naphthalen-2-ylmethyl)piperidin-4-yl]phthalazin-1-amine] showed a melting point of 104 °C.
For `CCc1nnc(NC2CCN(Cc3ccc4ccccc4c3)CC2)c2cc(OC)cc(OC)c12` (as salt: salt) (hydrate or solvate) [Compound 23, 5,7-Dimethoxy-4-ethyl-N-[1-(naphthalen-2-ylmethyl)piperidin-4-yl]phthalazin-1-amine], the melting point was 250 °C.
In the case of `COc1ccc(-c2nnc(NC3CCN(Cc4ccc5occc5c4)CC3)c3cc(OC)ccc23)cc1` (as salt: salt) (hydrate or solvate) [Compound 26, N-[1-(1-benzofuran-5-ylmethyl)piperidin-4-yl]-7-methoxy-4-(4-methoxyphenyl)phthalazin-1-amine], the melting point was 160 °C.
With `COc1ccc(-c2nnc(NC3CCN(Cc4ccc(C)c(C)c4)CC3)c3cc(OC)ccc23)cc1` (as salt: salt) (hydrate or solvate) [Compound 29, N-[1-(3,4-dimethylbenzyl)piperidin-4-yl]-7-methoxy-4-(4-methoxyphenyl)phthalazin-1-amine] the melting point was 130 °C.
With `COc1ccc(-c2nnc(NC3CCN(Cc4ccc5ncsc5c4)CC3)c3cc(OC)ccc23)cc1` (as salt: salt) (hydrate or solvate) [Compound 59, N-[1-(1,3-benzothiazol-6-ylmethyl)piperidin-4-yl]-7-methoxy-4-(4-methoxyphenyl)phthalazin-1-amine] the melting point was 180 °C.
For `COc1ccc(-c2nnc(NC3CCN(Cc4ccc5sccc5c4)CC3)c3cc(OC)ccc23)cc1` (as salt: salt) (hydrate or solvate) [Compound 60, N-[1-(1-benzothien-5-ylmethyl)piperidin-4-yl]-7-methoxy-4-(4-methoxyphenyl)phthalazin-1-amine], the melting point was 176 °C.
Work on `COc1ccc(-c2nnc(NC3CCN(Cc4c[nH]c5ccccc45)CC3)c3cc(OC)ccc23)cc1` (as salt: salt) (hydrate or solvate) [Compound 65, N-[1-(1H-indol-3-ylmethyl)piperidin-4-yl]-7-methoxy-4-(4-methoxyphenyl)phthalazin-1-amine] yielded a melting point of 257 °C.
With `CCCCc1nnc(NC2CCN(Cc3ccc4ccccc4c3)CC2)c2cc(OC)ccc12` (as salt: salt) (hydrate or solvate) [Compound 67, 4-Butyl-7-methoxy-N-[1-(naphthalen-2-ylmethyl)piperidin-4-yl]phthalazin-1-amine] the melting point was 101 °C.
For `COc1ccc2c(-c3ccc(F)cc3)nnc(NC3CCN(Cc4ccc5ccccc5c4)CC3)c2c1` (as salt: salt) (hydrate or solvate) [Compound 82, 4-(4-Fluorophenyl)-7-methoxy-N-[1-(naphthalen-2-ylmethyl)piperidin-4-yl]phthalazin-1-amine], the melting point was 175 °C.

Source: US7423030B2, “1-amino-phthalazine derivatives, the preparation and the therapeutic use thereof” (Sanofi-Aventis, priority 2004, dated 2008)
